Patent publication US10645922B2, “Methods and compositions for pest bait” (Dow AgroSciences LLC, priority 2015, dated 2020)
Entries after “also recorded” stand apart in the source; their conditions may differ.

System: termites
Assay: Two-way choice bioassay, filter paper consumption by termite workers
Assay type: in vivo, Reticulitermes flavipes
Details: FIG. 1A, FIG. 1B; series of experiments and validated tests
Procedure: Two-way choice bioassays are conducted with the granule formulation containing 1% 1-MCP in weight boats. Test materials are placed in weigh boats to prevent physical contact of termite workers with test material. Filter papers associated with 1-MCP are used to qualify consumption. Bioassay arenas are placed inside sealed plastic containers with open moisture sources to maintain high humidity for releasing 1-MCP from the granule formulation. […] The experiment results are also shown in Table 1, where negative control uses granules having 22% alpha-cyclodextrin+78% sodium bentonite.

CC1=CC1 [1-MCP, 1-methylcyclopropene]
Filter paper consumption in presence of 1-MCP (in words): Significant higher consumption; also recorded: significantly increase
